One test has as its target T1, SMARCA2 (Homo sapiens, UniProt P51531).
T1 construct: SMARCA2-HiBiT knock-in Hela monoclonal cell (CS302366); host or cells: HeLa (CRISPR HiBiT knock-in monoclonal line, heterozygous)
Nature of the test: SMARCA2 HiBiT degradation assay in HeLa cells. The test is classed as cell-based. Particulars: 18 hours; for DC50: read-out: SMARCA2 IC50; for Dmax: HeLa. In short, it runs like this:
(§1)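 Degradation measured as HiBiT luminescence (Nano-Glo lytic reagent) after 18 h compound exposure at 37° C. Cells were HeLa clones carrying heterozygous HiBiT tags on SMARCA2 or SMARCA4, 2500 per well; compounds at 3-fold serial dilution from 10 μM.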

The target of a further test is T2, SMARCA4 (Homo sapiens, UniProt P51532).
T2 construct: SMARCA4-HiBiT knock-in Hela monoclonal cell (CS3023226) were purchased from Promega; host or cells: HeLa (CRISPR HiBiT knock-in monoclonal line, heterozygous)
Nature of the test: SMARCA4 HiBiT degradation assay in HeLa cells. The test is classed as cell-based. Particulars: 18 hours; for Dmax: HeLa. The procedure, abridged:
as §1

T2 sequence (P51532 whole entry): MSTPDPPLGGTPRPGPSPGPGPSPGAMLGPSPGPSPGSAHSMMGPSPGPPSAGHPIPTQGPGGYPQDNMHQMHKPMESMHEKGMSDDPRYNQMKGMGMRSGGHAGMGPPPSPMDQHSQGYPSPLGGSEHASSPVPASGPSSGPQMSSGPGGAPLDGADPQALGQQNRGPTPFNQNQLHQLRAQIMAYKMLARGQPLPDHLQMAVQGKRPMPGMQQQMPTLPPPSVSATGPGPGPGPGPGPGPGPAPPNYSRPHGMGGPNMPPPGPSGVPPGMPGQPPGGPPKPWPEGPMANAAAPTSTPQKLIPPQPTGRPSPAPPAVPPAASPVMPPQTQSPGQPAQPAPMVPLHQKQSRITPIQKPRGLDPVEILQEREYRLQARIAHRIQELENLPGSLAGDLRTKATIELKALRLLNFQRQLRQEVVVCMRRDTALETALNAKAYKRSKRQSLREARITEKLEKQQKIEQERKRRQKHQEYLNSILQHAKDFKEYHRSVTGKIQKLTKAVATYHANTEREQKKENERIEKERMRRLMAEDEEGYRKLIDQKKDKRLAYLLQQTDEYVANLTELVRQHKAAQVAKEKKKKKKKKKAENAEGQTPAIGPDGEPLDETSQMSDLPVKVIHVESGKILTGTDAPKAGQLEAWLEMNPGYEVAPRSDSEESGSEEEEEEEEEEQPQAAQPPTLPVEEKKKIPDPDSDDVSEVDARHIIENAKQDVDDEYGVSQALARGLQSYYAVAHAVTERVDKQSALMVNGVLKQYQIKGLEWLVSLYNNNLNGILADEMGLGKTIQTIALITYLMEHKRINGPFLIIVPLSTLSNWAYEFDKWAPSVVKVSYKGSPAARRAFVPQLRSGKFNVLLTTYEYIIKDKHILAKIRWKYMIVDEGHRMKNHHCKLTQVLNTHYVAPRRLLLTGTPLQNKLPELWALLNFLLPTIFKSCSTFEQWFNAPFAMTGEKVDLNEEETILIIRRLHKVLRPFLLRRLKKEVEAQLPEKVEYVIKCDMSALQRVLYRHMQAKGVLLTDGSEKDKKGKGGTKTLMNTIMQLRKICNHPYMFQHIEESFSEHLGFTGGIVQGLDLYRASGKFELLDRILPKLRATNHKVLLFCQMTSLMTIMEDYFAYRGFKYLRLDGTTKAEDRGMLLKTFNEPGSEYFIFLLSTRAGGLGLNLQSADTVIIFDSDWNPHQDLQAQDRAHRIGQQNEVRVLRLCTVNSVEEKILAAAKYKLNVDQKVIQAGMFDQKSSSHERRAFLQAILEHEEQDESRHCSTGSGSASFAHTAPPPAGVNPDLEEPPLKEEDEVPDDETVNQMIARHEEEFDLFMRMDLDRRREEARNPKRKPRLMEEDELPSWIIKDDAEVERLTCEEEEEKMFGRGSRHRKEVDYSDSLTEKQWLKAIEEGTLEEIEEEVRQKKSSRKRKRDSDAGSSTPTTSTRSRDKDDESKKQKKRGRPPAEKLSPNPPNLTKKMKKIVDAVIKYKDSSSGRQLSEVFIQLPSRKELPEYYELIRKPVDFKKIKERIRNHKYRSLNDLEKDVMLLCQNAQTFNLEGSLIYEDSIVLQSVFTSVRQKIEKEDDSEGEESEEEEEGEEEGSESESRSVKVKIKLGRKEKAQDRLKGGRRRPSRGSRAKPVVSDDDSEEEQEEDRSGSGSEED
T1 sequence (P51531 whole entry): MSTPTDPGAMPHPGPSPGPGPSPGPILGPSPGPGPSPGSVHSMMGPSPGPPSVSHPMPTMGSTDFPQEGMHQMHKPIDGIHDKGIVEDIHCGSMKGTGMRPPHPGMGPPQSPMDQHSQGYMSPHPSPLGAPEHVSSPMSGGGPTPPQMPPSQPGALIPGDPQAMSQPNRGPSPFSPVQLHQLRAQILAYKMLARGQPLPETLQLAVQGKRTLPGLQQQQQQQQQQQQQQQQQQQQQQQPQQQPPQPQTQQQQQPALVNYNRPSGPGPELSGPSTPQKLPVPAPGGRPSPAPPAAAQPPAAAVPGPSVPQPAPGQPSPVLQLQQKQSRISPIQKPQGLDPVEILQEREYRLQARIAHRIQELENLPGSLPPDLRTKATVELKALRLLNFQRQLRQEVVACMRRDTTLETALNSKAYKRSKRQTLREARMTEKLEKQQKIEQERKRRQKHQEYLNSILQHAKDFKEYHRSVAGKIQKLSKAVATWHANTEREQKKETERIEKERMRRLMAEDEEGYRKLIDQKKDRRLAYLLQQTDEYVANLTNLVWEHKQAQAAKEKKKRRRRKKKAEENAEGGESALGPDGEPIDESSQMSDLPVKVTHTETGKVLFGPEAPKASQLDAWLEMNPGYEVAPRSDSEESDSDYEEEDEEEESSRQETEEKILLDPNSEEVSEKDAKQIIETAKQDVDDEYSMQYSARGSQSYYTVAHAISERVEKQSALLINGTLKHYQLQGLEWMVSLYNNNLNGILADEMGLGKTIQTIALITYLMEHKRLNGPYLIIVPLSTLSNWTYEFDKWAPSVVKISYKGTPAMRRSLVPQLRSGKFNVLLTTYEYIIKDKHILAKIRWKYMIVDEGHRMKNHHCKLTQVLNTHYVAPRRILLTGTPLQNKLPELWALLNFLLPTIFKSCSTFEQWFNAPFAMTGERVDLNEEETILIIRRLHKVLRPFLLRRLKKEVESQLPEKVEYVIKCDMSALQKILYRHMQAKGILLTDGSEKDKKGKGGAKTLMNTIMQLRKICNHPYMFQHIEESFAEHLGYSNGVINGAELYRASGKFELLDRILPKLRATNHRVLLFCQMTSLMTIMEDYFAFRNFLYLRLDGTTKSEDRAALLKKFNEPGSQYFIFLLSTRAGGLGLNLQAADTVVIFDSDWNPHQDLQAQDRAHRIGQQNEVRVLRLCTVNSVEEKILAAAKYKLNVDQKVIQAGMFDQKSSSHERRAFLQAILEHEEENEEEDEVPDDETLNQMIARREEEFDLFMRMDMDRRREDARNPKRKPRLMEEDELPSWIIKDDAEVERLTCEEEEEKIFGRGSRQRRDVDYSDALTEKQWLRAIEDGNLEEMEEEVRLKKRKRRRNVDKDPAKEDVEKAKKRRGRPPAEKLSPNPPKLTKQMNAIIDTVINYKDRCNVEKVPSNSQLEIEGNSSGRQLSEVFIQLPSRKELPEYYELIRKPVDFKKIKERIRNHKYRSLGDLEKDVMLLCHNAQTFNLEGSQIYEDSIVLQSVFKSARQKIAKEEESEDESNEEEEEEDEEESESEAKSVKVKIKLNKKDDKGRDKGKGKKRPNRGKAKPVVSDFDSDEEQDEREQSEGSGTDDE

For `COCC12CNc3nnc(-c4cccc(F)c4O)cc3N1CCN(C(=O)N1CCN(CC3CCN(c4ccc5c(c4)C(=O)N([C@H]4CCC(=O)NC4=O)C5)CC3)CC1(C)C)C2` (single isomer, unassigned) [Example 93], the DC50 at SMARCA2 is under 0.1 µM; on SMARCA4 it was over 1 µM. Moreover, the Dmax on SMARCA2 was over 75%; at SMARCA4, under 50%.
For `C[C@@H]1CN(CC2CCN(c3ccc4c(c3)C(=O)N([C@H]3CCC(=O)NC3=O)C4)CC2)C[C@H](C)N1C(=O)N1CCN2c3cc(-c4cccc(F)c4O)nnc3NCC2(C(F)(F)F)C1` (single isomer, unassigned) [Example 95] the same measures were under 0.1 µM, under 0.1 µM, over 75% and over 75%.
Take `C[C@@H]1CN(CC2CCN(c3ccc4c(c3)C(=O)N([C@H]3CCC(=O)NC3=O)C4)CC2)C[C@@H](C)N1C(=O)N1CCN2c3cc(-c4cccc(F)c4O)nnc3NCC2(C(F)(F)F)C1` (single isomer, unassigned) [Example 96]: at SMARCA2, the DC50 was under 0.1 µM and the maximal degradation (Dmax) is over 75%. On SMARCA4, the DC50 was under 0.1 µM and the “SMARCA4 DMax %” value was “A (A=Dmax>75%)”.
Consider `C[C@@H]1CN(CC2CCN(c3ccc4c(c3)C(=O)N([C@H]3CCC(=O)NC3=O)C4)CC2)C[C@@H](C)N1C(=O)N1CCN2c3cc(-c4cccc(F)c4O)nnc3NCC2(C(F)(F)F)C1` (single isomer, unassigned) [Example 97], for which, at SMARCA2, the “SMARCA2 DMax %” value was “A (A=Dmax>75%)” and the DC50 is under 0.1 µM. Besides, at SMARCA4, the DC50 lay in the range of 0.1 to 1 µM and the “SMARCA4 DMax %” value is recorded as “C (C=Dmax<50%)”.
With `C[C@@H]1C[C@H](CN2CCN(c3ccc4c(c3)C(=O)N([C@H]3CCC(=O)NC3=O)C4)CC2)C[C@H](C)N1C(=O)N1CCN2c3cc(-c4cccc(F)c4O)nnc3NCC2(C(F)(F)F)C1` (single isomer, unassigned) [Example 98], on SMARCA2, the DC50 was under 0.1 µM and the greatest degradation seen (Dmax) was over 75%. In addition, at SMARCA4, the DC50 is under 0.1 µM and the “SMARCA4 DMax %” value was “A (A=Dmax>75%)”.
Turning to `C[C@@H]1C[C@H](CN2CCN(c3ccc4c(c3)C(=O)N([C@H]3CCC(=O)NC3=O)C4)CC2)C[C@H](C)N1C(=O)N1CCN2c3cc(-c4cccc(F)c4O)nnc3NCC2(C(F)(F)F)C1` (single isomer, unassigned) [Example 99], on SMARCA2, the “SMARCA2 DMax %” value is recorded as “A (A=Dmax>75%)” and the DC50 is under 0.1 µM. Besides, at SMARCA4, the DC50 was under 0.1 µM and the “SMARCA4 DMax %” value is “B (B=50%<Dmax≤75%)”.
Consider `CC1(C)CN(CC2CCN(c3ccc4c(c3)C(=O)N([C@H]3CCC(=O)NC3=O)C4)CC2)CCN1C(=O)N1CCN2c3cc(-c4cccc(F)c4O)nnc3NCC2(C(F)(F)F)C1` (single isomer, unassigned) [Example 100], for which, at SMARCA2, the “SMARCA2 DMax %” value is “A (A=Dmax>75%)” and the DC50 was under 0.1 µM. At SMARCA4, this compound displayed a DC50 of under 0.1 µM and a Dmax of 50 to 75%.
Take `CC1(C)CN(CC2CCN(c3ccc4c(c3)C(=O)N([C@H]3CCC(=O)NC3=O)C4)CC2)CCN1C(=O)N1CCN2c3cc(-c4cccc(F)c4O)nnc3NCC2(C(F)(F)F)C1` (single isomer, unassigned) [Example 101]: on SMARCA2, the “SMARCA2 DMax %” value is “B (B=50%<Dmax≤75%)” and the DC50 was under 0.1 µM. Further, at SMARCA4, the DC50 is over 1 µM and the “SMARCA4 DMax %” value is “C (C=Dmax<50%)”.
For `CCC12CNc3nnc(-c4cc(F)cc(F)c4O)cc3N1CCN(C(=O)C1(F)CCC(CN3CCN(c4ccc5c(c4)C(=O)N([C@H]4CCC(=O)NC4=O)C5)CC3)CC1)C2` (single isomer, unassigned) [Example 102], at SMARCA2, the DC50 is under 0.1 µM and the Dmax was over 75%. Moreover, on SMARCA4, the DC50 was under 0.1 µM and the “SMARCA4 DMax %” value was “A (A=Dmax>75%)”.
For `CCC12CNc3nnc(-c4cc(F)cc(F)c4O)cc3N1CCN(C(=O)C1(F)CCC(CN3CCN(c4ccc5c(c4)C(=O)N([C@H]4CCC(=O)NC4=O)C5)CC3)CC1)C2` (single isomer, unassigned) [Example 103], on SMARCA2, the “SMARCA2 DMax %” value is “A (A=Dmax>75%)” and the DC50 was under 0.1 µM. For the same compound, at SMARCA4, the DC50 is under 0.1 µM and the “SMARCA4 DMax %” value is “B (B=50%<Dmax≤75%)”.
As for `CCC12CNc3nnc(-c4cccc(Cl)c4O)cc3N1CCN(C(=O)C1(F)CCN(CC3CCN(c4ccc5c(c4)C(=O)N([C@H]4CCC(=O)NC4=O)C5)CC3)CC1)C2` (single isomer, unassigned) [Example 106], the DC50 on SMARCA2 and at SMARCA4 was under 0.1 µM in each case. In addition, the Dmax on SMARCA2 and at SMARCA4 was over 75% in each case.
As for `CCC12CNc3nnc(-c4cccc(F)c4O)cc3N1CCN(C(=O)C1(F)CCN(CC3CCN(c4ccc5c(c4)C(=O)N([C@H]4CCC(=O)NC4=O)C5)CC3)CC1)C2` (single isomer, unassigned) [Example 107], on SMARCA2, the DC50 is under 0.1 µM and the maximal degradation (Dmax) was over 75%. In addition, at SMARCA4, the DC50 lay in the range of 0.1 to 1 µM and the “SMARCA4 DMax %” value is recorded as “C (C=Dmax<50%)”.
For the compound `CCC12CNc3nnc(-c4cccc(F)c4O)cc3N1CCN(C(=O)C1(F)CCN(CC3CCN(c4ccc5c(c4)C(=O)N([C@H]4CCC(=O)NC4=O)C5)CC3)CC1)C2` (single isomer, unassigned) [Example 108], at SMARCA2, the “SMARCA2 DMax %” value is on record as “A (A=Dmax>75%)” and the DC50 was under 0.1 µM. Besides, at SMARCA4, the DC50 is under 0.1 µM and the “SMARCA4 DMax %” value was “A (A=Dmax>75%)”.
For `CCC12CNc3nnc(-c4cc(F)cc(F)c4O)cc3N1CCN(C(=O)C1(F)CCN(CC3CCN(c4ccc5c(c4)C(=O)N([C@H]4CCC(=O)NC4=O)C5)CC3)CC1)C2` (single isomer, unassigned) [Example 109], at SMARCA2, the DC50 was under 0.1 µM and the Dmax was over 75%. At SMARCA4, this compound displayed a DC50 of under 0.1 µM and a Dmax of over 75%.
Consider `CCC12CNc3nnc(-c4cc(F)cc(F)c4O)cc3N1CCN(C(=O)C1(F)CCN(CC3CCN(c4ccc5c(c4)C(=O)N([C@H]4CCC(=O)NC4=O)C5)CC3)CC1)C2` (single isomer, unassigned) [Example 110], for which the DC50 at SMARCA2 and on SMARCA4 was under 0.1 µM throughout.
With `CC12CNc3nnc(-c4cccc(F)c4O)cc3N1CCN(C(=O)C1(F)CCN(CC3CCN(c4ccc5c(c4)C(=O)N([C@H]4CCC(=O)NC4=O)C5)CC3)CC1)C2` (single isomer, unassigned) [Example 111], at SMARCA2, the DC50 was under 0.1 µM and the Dmax fell in the range of 50 to 75%. At SMARCA4, this compound displayed a DC50 of over 1 µM and a Dmax of under 50%.
As for `CC12CNc3nnc(-c4cc(F)cc(F)c4O)cc3N1CCN(C(=O)C1(F)CCN(CC3CCN(c4ccc5c(c4)C(=O)N([C@H]4CCC(=O)NC4=O)C5)CC3)CC1)C2` (single isomer, unassigned) [Example 112], at SMARCA2, the DC50 was under 0.1 µM and the Dmax is over 75%. On SMARCA4, the DC50 was under 0.1 µM and the “SMARCA4 DMax %” value is “A (A=Dmax>75%)”.
For the compound `CC12CNc3nnc(-c4cc(F)cc(F)c4O)cc3N1CCN(C(=O)C1(F)CCN(CC3CCN(c4ccc5c(c4)C(=O)N([C@H]4CCC(=O)NC4=O)C5)CC3)CC1)C2` (single isomer, unassigned) [Example 113], on SMARCA2, the “SMARCA2 DMax %” value is “A (A=Dmax>75%)” and the DC50 was under 0.1 µM. Moreover, at SMARCA4, the DC50 is over 1 µM and the “SMARCA4 DMax %” value is “C (C=Dmax<50%)”.
As for `CC12CNc3nnc(-c4cccc(F)c4O)cc3N1CCN(C[C@H]1CC[C@H](CN3CCN(c4ccc5c(c4)C(=O)N(C4CCC(=O)NC4=O)C5)CC3)CC1)C2` (single isomer, unassigned) [Example 115], on SMARCA2, the DC50 was under 0.1 µM and the Dmax was over 75%. On SMARCA4, this compound registered a DC50 of under 0.1 µM and a Dmax of 50 to 75%.
For the compound `CC12CNc3nnc(-c4cccc(F)c4O)cc3N1CCN(C[C@H]1CC[C@H](CN3CCN(c4ccc5c(c4)C(=O)N(C4CCC(=O)NC4=O)C5)CC3)CC1)C2` (single isomer, unassigned) [Example 116], the DC50 on SMARCA2 and at SMARCA4 was under 0.1 µM in each case.
On to `CC12CNc3nnc(-c4cccc(F)c4O)cc3N1CCN(C[C@H]1CC[C@H](CN3CCN(c4ccc5c(c4)C(=O)N([C@H]4CCC(=O)NC4=O)C5)CC3)CC1)C2` (single isomer, unassigned) [Example 117], for which, on SMARCA2, the DC50 is under 0.1 µM and the Dmax was over 75%. Further, at SMARCA4, the DC50 was under 0.1 µM and the greatest degradation seen (Dmax) was in the range of 50 to 75%.
Consider `CC12CNc3nnc(-c4cccc(F)c4O)cc3N1CCN(C[C@H]1CC[C@H](CN3CCN(c4ccc5c(c4)C(=O)N([C@H]4CCC(=O)NC4=O)C5)CC3)CC1)C2` (single isomer, unassigned) [Example 118], for which the DC50 on SMARCA2 and on SMARCA4 was under 0.1 µM in each case.
Consider `C[C@@H]1C[C@H](CN2CCN(c3ccc4c(c3)C(=O)N([C@H]3CCC(=O)NC3=O)C4)CC2)C[C@H](C)N1C(=O)N1CCN2c3cc(-c4cccc(F)c4O)nnc3NCC2(C)C1` (single isomer, unassigned) [Example 120], for which the DC50 at SMARCA2 and on SMARCA4 was under 0.1 µM each time. For the same compound, the Dmax at SMARCA2 and at SMARCA4 was over 75% in each case.
For `C[C@@H]1C[C@H](CN2CCN(c3ccc4c(c3)C(=O)N([C@H]3CCC(=O)NC3=O)C4)CC2)C[C@H](C)N1C(=O)N1CCN2c3cc(-c4cccc(F)c4O)nnc3NCC2(C)C1` (single isomer, unassigned) [Example 121], the DC50 on SMARCA2 and at SMARCA4 was under 0.1 µM in each case.
In the case of `CC1(C)CC(CN2CCN(c3ccc4c(c3)C(=O)N([C@H]3CCC(=O)NC3=O)C4)CC2)CCN1C(=O)N1CCN2c3cc(-c4cccc(F)c4O)nnc3NCC2(C)C1` (single isomer, unassigned) [Example 123], on SMARCA2, the DC50 was under 0.1 µM and the greatest degradation seen (Dmax) is over 75%. Besides, on SMARCA4, the DC50 is under 0.1 µM and the “SMARCA4 DMax %” value is reported as “A (A=Dmax>75%)”.

Source of the values: patent US20230365576A1, “BRM Targeting Compounds And Associated Methods Of Use” (Prelude Therapeutics Incorporated, priority 2022, published 2023).
